Measured values published in US4230719A, “Novel 2-[4-(3-methyl-2-thienyl)phenyl]propionic acid and pharmaceutically acceptable salt thereof and method for treating symptoms of inflammation and pain” (Toyama Chemical Co., Ltd., priority 1977, dated 1980).
Where two headings read alike, the source gives them in different places.

Tests used:
Vascular permeability [1] = assay: Vascular permeability in mice (Whittle's method); format: in vivo, mouse (ddY strain, male); conditions: for Inhibition: dye leakage; for ED30: po, mouse, read-out: ED30
Method: (i) Vascular permeability in mice (Whittle's method)
The test compound was orally administered to each ddY strain male mouse (weighing each about 20 g). After 20 minutes, 0.1 ml/10 g of a 4%(Wt/V) solution of Pontamine Sky Blue in physiological saline was intravenously injected and 10 minutes thereafter 0.1 ml/10 g of a 0.7%(V/V) solution of acetic acid in physiological saline was injected intraperitoneally. After 30 minutes, the mice were killed by suffocation with chloroform. After immediate laparotomy, the dye leaked into the peritoneal cavity was washed out with distilled water. The washings were made up with water to 30 ml and the absorbance at 620 mμ was measured. The amount of leaked dye per 20 g of mouse weight was compared.

in vivo = conditions: rat, po
Adjuvant arthritis = assay: Adjuvant arthritis; format: in vivo, rat (Sprague-Dawley strain, male); conditions: 1 mg/kg p.o./day, mean during one week
Method: A suspension containing 6 mg/ml of killed and dried Mycobacterium butyricum in liquid paraffin was subcutaneously injected into the subplantar region of the left hind paw of Sprague-Dawley strain male rats (weighing 180 to 200 g) in a proportion of 0.1 ml/rat. After 14 days, the rats having inflammatory paws of similar volumes were selected and the test compound was orally administered to the rats repeatedly at the rate shown in Table 4 during one week and the mean inhibitory percent of swelling during one week was determined.

[2] = tested on: pain threshold (brewer's yeast, hind paw); assay: Analgesic activity, Randall-Selitto method in rat; format: in vivo, rat (Wistar strain, male); conditions: for Inhibition: 100% = pain threshold raised by 150 g; for ED50: po, rat, read-out: ED50
Method: (ii) Randall-Selitto method in rat
After one hour, the test compound was orally administered. One hour thereafter, the pain threshold value was measured four times at a time interval of one hour. The mean value of four values obtained was taken as the pain threshold value of each group of rats. The activity of the drug was assumed to be 100% when the pain threshold value was raised by 150 g.

[3] = tested on: Phenol Red (PSP) excretion; assay: Uricosuric action (a), inhibition of Phenol Red (PSP) excretion; format: in vivo, rabbit (male)
Method: (a) The action was examined by the method of B. B. Brodie et al. who reported that the inhibitory action on Phenol Red (PSP) excretion correlates with the uricosuric action [Proc. Soc. Exp. Biol. Med., 86, 884 (1954)]. To a male rabbit weighing 2 to 3 kg was intraperitoneally administered the test compound. After 30 minutes, 75 mg/kg of a Phenol Red suspension was injected into the pinna vein of the rabbit and 30 minutes thereafter a blood sample was drawn from the pinna vein. The blood sample was centrifuged and the serum was diluted with physiological saline. The diluted serum was treated with 0.1 N NaOH to develop the color. The concentration of Phenol Red in the serum was determined from the absorbance at 560 mμ.

[4] = tested on: Carrageenin-induced edema; assay: Carrageenin-induced edema; format: in vivo, rat (Donryu strain, male); conditions: Rattus norvegicus, po, mean in 5 hours, read-out: Inhibitory percent of swelling; for inhibition in vivo at 1 mg/kg: 1 mg/kg p.o.; for inhibition in vivo at 5 mg/kg: 5 mg/kg p.o.
Method: (iii) Carrageenin-induced edema
Each of the 6 Donryu strain male rats per group (each weighing about 140 g), which had been fasted overnight, was orally loaded with 4 ml of water and, after 30 minutes, the test compound was orally administered thereto. Thirty minutes thereafter, a 1%(Wt/V) solution of carrageenin in physiological saline was subcutaneously injected into the subplantar region of the left hind paw. At a time interval of one hour, starting from the end of the first hour till the end of the fifth hour after injection of carrageenin, the paw volume was measured by means of a manometer and pressure transducer. By comparison with the percent increase in swelling of the control group of rats to which a 0.5%(V/V) solution of Tween 80 had been administered, the mean inhibitory percent in 5 hours of swelling was calculated by the following equation: [formula]

Vascular permeability [5] = assay: Vascular permeability in rat (Whittle's method); format: in vivo, rat (Wistar strain, male); conditions: for ED30: po, rat, read-out: ED30
Method: (ii) Vascular permeability in rat (Whittle's method)
The test compound was orally administered to each Wistar strain male rat (weighing about 150 g) which had been fasted overnight. After 55 minutes, 0.5 ml of a 0.5% Evans Blue solution was intravenously injected. Five minutes thereafter, 0.2 ml/100 g of a 3%(V/V) acetic acid solution was intraperitoneally injected. After 60 minutes from the injection of the acetic acid solution, the rats were killed by suffocation with chloroform. After immediate laparotomy, the dye leaked into the peritoneal cavity was washed out with physiological saline. The washings were made up with the saline to 30 ml and the absorbance at 640 mμ was measured to examine the effect of the test compounds by comparing the amounts of leaked dye per rat with one another.

[6] = tested on: phenylbenzoquinone writhing; assay: Analgesic activity, phenylbenzoquinone method in mouse; format: in vivo, mouse (ddY strain, male); conditions: for Frequency of writhing, mean ± S.E.: during 10 minutes; for inhibition in vivo at 5 mg/kg / inhibition in vivo at 10 mg/kg / inhibition in vivo at 20 mg/kg: Mus musculus, 10 min, writhing, read-out: Inhibition; for inhibition in vivo at 5 mg/kg / inhibition in vivo at 10 mg/kg / inhibition in vivo at 20 mg/kg / ED50: po; for ED50: mouse, read-out: ED50
Method: (i) Phenylbenzoquinone method in mouse
The test compound was orally administered to each ddY strain male mouse (weighing 22±2 g; 8 mice per group). […] The frequency of writhing during 10 minutes from 5-minutes after the injection of phenylbenzoquinone was measured and compared with that of a control group to which a 0.5% Tween 80 solution was administered. The percent inhibition was calculated by the following equation: [formula]

[7] = tested on: threshold value of pain due to pressure stimuli (tail); conditions: for Analgesic effect: 100% = threshold raised by 160 g; for ED50: Mus musculus, po
[8] = tested on: fever (Mycobacterium butyricum); assay: Antipyretic action; format: in vivo, rat (Wistar strain, female); conditions: for ED1.0: po, rat, read-out: ED1.0
Method: A suspension (0.6 mg/0.1 ml) of killed and dried Mycobacterium butyricum in liquid paraffin was subcutaneously injected in an amount of 0.1 ml into the subplantar region of the hind paw of each Wistar strain female rat weighing about 180 g. After 14 hours, the fevered rats were divided into groups, and each test compound was orally administered to each group to examine the antipyretic effect.

Glomerulonephritis = assay: Action on glomerulonephritis in rats; format: in vivo, rat (Wistar strain, male); conditions: 10 mg/kg p.o./day
Excerpt: (ii) Action on glomerulonephritis in rats
Glomerulonephritis was induced in Wistar strain male rats (each weighing 180 to 200 g) by use of an anti-rat's kidney rabbit serum obtained from the serum of a rabbit sensitized with a homogenate of rat's kidney cortice. To the rat producing stable proteinuria was orally administered the test compound repeatedly at the rate shown in Table 12 for 2 weeks, and the inhibition of uric protein was examined.

Compound | Dye leakage (P.S.B.) mean ± S.E. (Vascular permeability [1]; 5 mg/kg p.o.) [μg/20g] | Dye leakage (P.S.B.) mean ± S.E. (Vascular permeability [1]; 10 mg/kg p.o.) [μg/20g] | Dye leakage (P.S.B.) mean ± S.E. (Vascular permeability [1]; 20 mg/kg p.o.) [μg/20g] | Inhibition (Vascular permeability [1]; 5 mg/kg p.o.) [%] | Inhibition (Vascular permeability [1]; 10 mg/kg p.o.) [%] | Inhibition (Vascular permeability [1]; 20 mg/kg p.o.) [%] | ED30 (Vascular permeability [1]) [mg/kg] | LD50 (in vivo) [mg/kg] | Inhibitory percent of swelling (Adjuvant arthritis) [%] | Inhibition ([2]; 1 mg/kg p.o.) [%] | Inhibition ([2]; 5 mg/kg p.o.) [%] | Inhibition ([2]; 25 mg/kg p.o.) [%] | ED50 [2] [mg/kg] | Concentration of PSP in serum, mean ± S.E. ([3]; 10 mg/kg i.p.) [µg/mL] | Concentration of PSP in serum, mean ± S.E. ([3]; 20 mg/kg i.p.) [µg/mL] | inhibition in vivo at 1 mg/kg [4] [%] | inhibition in vivo at 5 mg/kg [4] [%] | Inhibition (Vascular permeability [5]; 0.5 mg/kg p.o.) [%] | Inhibition (Vascular permeability [5]; 1 mg/kg p.o.) [%] | ED30 (Vascular permeability [5]) [mg/kg] | other results
Cc1ccsc1-c1ccc(C(C)C(=O)O)cc1 (racemic) [Racemic compound, dl-2-[4-(3-methyl-2-thienyl)phenyl]propionic acid] | 262.0 ± 21.1 | 211.0 ± 26.0 | 166.8 ± 13.8 | 18.3 | 34.2 | 48.0 | 8.5 | 248 | 14.4 | 44.3 | 45.2 | 66.9 | 6.1 | 166.7 ± 25.1 | 249.3 ± 41.4 | 21.2 | 48.5 | 20.1 | 27.6 | 1.1 | Inhibition (Vascular permeability [5]; 5 mg/kg p.o.): 50.1%; Frequency of writhing, mean ± S.E. ([6]; 5 mg/kg p.o.): 18.6 ± 4.5; Frequency of writhing, mean ± S.E. ([6]; 10 mg/kg p.o.): 11.8 ± 2.4; Frequency of writhing, mean ± S.E. ([6]; 20 mg/kg p.o.): 3.3 ± 0.9; inhibition in vivo at 5 mg/kg ([6]; 5 mg/kg p.o.): 21.2%; inhibition in vivo at 10 mg/kg ([6]; 10 mg/kg p.o.): 50%; inhibition in vivo at 20 mg/kg ([6]; 20 mg/kg p.o.): 86%; ED50 [6]: 9.7 mg/kg; Analgesic effect ([7]; 2.5 mg/kg p.o.): 33%; Analgesic effect ([7]; 10 mg/kg p.o.): 50%; Analgesic effect ([7]; 40 mg/kg p.o.): 85%; ED50 [7]: 7 mg/kg; Mean decrease in temp. ([8]; 0.2 mg/kg p.o.): 0.52 °C; Mean decrease in temp. ([8]; 1 mg/kg p.o.): 1.20 °C; Mean decrease in temp. ([8]; 5 mg/kg p.o.): 1.70 °C; ED1.0 [8]: 0.66 mg/kg
Cc1ccsc1-c1ccc(C(C)C(=O)O)cc1 (single isomer, unassigned; isomer d) [d-Isomer, d-2-[4-(3-methyl-2-thienyl)phenyl]propionic acid] | 256.4 ± 15.9 | 218.0 ± 14.3 | 160.4 ± 10.3 | 20.1 | 32.0 | 50.0 | 8.6 | 230 | 21.6 | 37.1 | 48.5 | 72.9 | 4.4 | 223.8 ± 3.9 | 267.3 ± 18.0 | 40 | 57.2 | 28.1 | 43.3 | 0.52 | Inhibition (Vascular permeability [5]; 0.2 mg/kg p.o.): 14.2%; Frequency of writhing, mean ± S.E. ([6]; 5 mg/kg p.o.): 14.5 ± 3.5; Frequency of writhing, mean ± S.E. ([6]; 10 mg/kg p.o.): 9.9 ± 2.6; Frequency of writhing, mean ± S.E. ([6]; 20 mg/kg p.o.): 5.4 ± 1.0; inhibition in vivo at 5 mg/kg ([6]; 5 mg/kg p.o.): 38.6%; inhibition in vivo at 10 mg/kg ([6]; 10 mg/kg p.o.): 58.1%; inhibition in vivo at 20 mg/kg ([6]; 20 mg/kg p.o.): 77.1%; ED50 [6]: 7.5 mg/kg; Analgesic effect ([7]; 2.5 mg/kg p.o.): 38%; Analgesic effect ([7]; 10 mg/kg p.o.): 61%; Analgesic effect ([7]; 40 mg/kg p.o.): 80%; ED50 [7]: 5.2 mg/kg; Mean decrease in temp. ([8]; 0.2 mg/kg p.o.): 0.82 °C; Mean decrease in temp. ([8]; 1 mg/kg p.o.): 1.18 °C; Mean decrease in temp. ([8]; 5 mg/kg p.o.): 1.63 °C; ED1.0 [8]: 0.44 mg/kg
CC(=O)OCC(=O)[C@@]1(O)CC[C@H]2[C@@H]3CCC4=CC(=O)CC[C@]4(C)[C@H]3[C@@H](O)C[C@@]21C [Hydrocortisone acetate] | – | – | – | – | – | – | – | – | – | – | – | – | – | – | – | – | – | – | – | – | Inhibition of uric protein (Glomerulonephritis; 7th day): 20.0%; Inhibition of uric protein (Glomerulonephritis; 14th day): 29.0%
